Test [1] deals with T1, NK1 receptor (Homo sapiens, UniProt P25103). Briefly: Displacement of marked SP ([125I]BH-SP). Type of test: binding. Particulars: Concentration 6.0E−05 M; marked SP 0.15 nM, 60 minutes at room temperature.
Target sequence in this assay (P25103 whole entry): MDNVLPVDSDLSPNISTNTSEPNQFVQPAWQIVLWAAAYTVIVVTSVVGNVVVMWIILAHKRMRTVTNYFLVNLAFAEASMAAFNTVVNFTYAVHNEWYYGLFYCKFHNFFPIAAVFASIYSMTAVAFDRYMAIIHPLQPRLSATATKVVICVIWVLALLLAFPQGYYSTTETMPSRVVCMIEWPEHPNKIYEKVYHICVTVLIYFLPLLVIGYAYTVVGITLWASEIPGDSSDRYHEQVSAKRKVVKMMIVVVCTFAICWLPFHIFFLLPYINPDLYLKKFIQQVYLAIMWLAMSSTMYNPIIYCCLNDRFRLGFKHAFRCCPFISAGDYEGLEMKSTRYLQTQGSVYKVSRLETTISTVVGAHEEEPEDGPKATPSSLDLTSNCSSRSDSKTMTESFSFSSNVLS
Test [2] deals with T1, NK1 receptor. Briefly: IP-One assay (SP-induced IP1 accumulation in CHO cells transfected with NK1). Type of test: cell-based. The arrangement: expressed in transfected cells; host or cells: CHO cells, transient electroporation. The method, then: Non-essential amino acids were also added to the medium (Invitrogen).
Transient transfection of the cell lines was carried out by electroporation in a volume of 300 μL with a total of 10 μg DNA (pRK5 Neo-NK1 wild type) plasmid (using up to 500 ng of pRK5como carrier DNA to achieve 10 μg) and with 10^7 cells in the electroporation buffer (50 mM K2HPO4, 20 mM CH3COOK, 20 mM KOH and 26 mM MgSO4, pH 7.4). After electroporation (280 V, 1 mF, GeneZapper 450/2500; IBI, New Haven, Conn., USA), the cells were suspended in a complete medium and seeded on well culture plates with a density of 10^5 per well. The 96-well culture plates were first covered with polyornithine diluted in PBS, then incubated at 37° C. for 30 minutes and they were then washed with PBS before being seeded.
The activation and inhibition of the route of the IP by the NK1 receptor agonists and antagonists, respectively, was determined using the dynamic IP-One kit (Cisbio Bioassays, Bagnols-sur-Cèze, France). After transfection, 10^5 cells were distributed in 100 pll of a complete medium into a 96-well assay plate (Greiner Bio-One, Courtaboeuf, France). After 24 hours, the medium was eliminated and replaced by 40 μl of an incubation medium that contained the agonist and/or antagonist in an appropriate concentration.
Target sequence in this assay (P25103 whole entry, species assumed): as the sequence (P25103 whole entry) above

Test [3] relates to A549 human cells from lung adenocarcinoma. Briefly: MTT cell viability assay, A549. Particulars: for anticancer activity against the cancer line (in words): A549 lung cancer cells; for IC50: A549, 48 hours exposure, MTT. Type of test: cell-based. For orientation: Formazan colour is commonly taken as a measure of viable cells.
The test system of test [4] is MRC5 non-malignant human lung cells. As to the kind of experiment: MTT cell viability assay, MRC-5. It is filed as cell-based.
Setting [5] is: Homo sapiens, MRC5, MRC-5, 48 hours exposure.

“Also recorded” adds a separate entry of the source. Where only a bound is given, the exact number is not on record here.

For `C[C@@H](O[C@H]1OC[C@@H]2OC(C)(C)O[C@@H]2[C@H]1OCc1ccc(F)cc1)c1cc(C(F)(F)F)cc(C(F)(F)F)c1` [Compound 8], the “% Inhibition of the control specific affinity” value on NK1 receptor [1] is listed as no less than 100%.

The IC50 is the point on the concentration scale where inhibition reaches its midpoint. Higher therefore signals weaker potency in that assay. With `C[C@@H](O[C@H]1O[C@@H]2CO[C@@H](c3ccccc3)O[C@@H]2[C@H](O)[C@H]1OCc1ccc(F)cc1)c1cc(C(F)(F)F)cc(C(F)(F)F)c1` [Compound 2, (R)-{1-[3,5-bis-(trifluoromethyl)phenyl]ethyl} 2-O-p-fluorobenzyl-(R)-[4,5-O-benzylidene]-α-D-galactopyranoside], at NK1 receptor [2] (IP-One assay, inhibition of SP activity), the “NK1 receptor antagonist activity (in words)” value was “excellent inhibitors of SP activity; also recorded: greatest antagonist activity”. The “anticancer activity against the cancer line (in words)” value in test [3] is listed as “most active; also recorded: matches those of cisplatin”. In addition, the IC50 in test [3] (Homo sapiens) was 19.3 ± 7.93 µM; in test [4] (setting [5]), 120 ± 3.45 µM. Also, the “% Inhibition of the control specific affinity” value on NK1 receptor [1] is no less than 100%.

`CC(=O)N[C@@H](Cc1c[nH]c2ccccc12)C(=O)OCc1cc(C(F)(F)F)cc(C(F)(F)F)c1` [L-732,138, reference compound] showed a Kinact on NK1 receptor [2] (inhibition of substance P (SP), dose-response curves, IP-One assay) of 8.37E−08±2.63 M. The molecule further gave an SP inhibition on NK1 receptor [2] (ligand concentration of 10^−6M) of 69%.

On to “(R)-{1-[3,5-bis-(trifluoromethyl)phenyl]ethyl} 2-O-p-fluorobenzyl-(R)-[4,5-O-benzylidene]-β-D-D-galactopyranoside [Compound 1]”, for which, in test [3], the IC50 was determined as 28 ± 6.85 µM and the “anticancer activity against the cancer line (in words)” value is “most active”. For the same molecule, the IC50 in test [4] (MRC-5, 48 hours exposure) was 141 ± 1.82 µM.

For the molecule `COc1ccccc1CN[C@H]1C2CCN(CC2)[C@H]1C(c1ccccc1)c1ccccc1` [CP-96345, reference compound], the 50% inhibitory concentration (IC50) in test [3] (Homo sapiens) was 46.8 ± 8.89 µM; in test [4] (setting [5]), 57.9 ± 8.07 µM.

As for `C[C@@H](O[C@H]1OCCN(Cc2n[nH]c(=O)[nH]2)[C@H]1c1ccc(F)cc1)c1cc(C(F)(F)F)cc(C(F)(F)F)c1` [Aprepitant, reference compound], the IC50 in test [3] (Homo sapiens) is 15.7 ± 3.46 µM; in test [4] (setting [5]), 22.1 ± 6.92 µM.
